Data reported in ChEMBL document CHEMBL3244162, “Synthesis and biological evaluation of tetramisole analogues as inhibitors of alkaline phosphatase of the 6-thiopurine-resistant tumor sarcoma 180/TG” (J Med Chem, 1979).
pIC50: −log10 of the molar value. Where a name gives a salt, the structure may show the parent alone. Active and inactive are the calls of the source. No cut-off for these calls is given here.

Experiments:
Type in all cases: cell-based
[1] = species: Mus musculus; experiment: Inhibition of alkaline phosphatase in mouse 180/TG cells assessed as p-nitrophenyl phosphate hydrolysis up to 1 mM by spectrophotometry
[2] = species: Mus musculus; experiment: Inhibition of alkaline phosphatase in mouse 180/TG cells assessed as p-nitrophenyl phosphate hydrolysis up to 5 mM by spectrophotometry
[3] = Inhibition of alkaline phosphatase in mouse 180/TG cells assessed as p-nitrophenyl phosphate hydrolysis by spectrophotometry; conditions: read-out: I50

Row | SMILES | inhibition [1] | inhibition [2] [%] | pIC50 [3]
1 | c1ccc(-c2cn3c(n2)OCC3)cc1 | inactive |  | 
2 | c1ccc(C2CN3CCNC3=N2)cc1 (stereo not given) | inactive | 15 | 
3 | c1ccc(C2CN3CCSC3=N2)cc1 (stereo not given) [TETRAMISOLE HYDROCHLORIDE] |  |  | 4.35
4 | c1ccc(C2CN3CCOC3=N2)cc1 (stereo not given) |  |  | 3.68
